Source: article doi:10.1101/2025.04.25.650653, “Hierarchical small molecule inhibition of MYST acetyltransferases” (bioRxiv, 2025)
Where two headings read alike, the source gives them in different places.

Tests used:
[1] = system: NCI-60 cell line panel; test: NCI-60 cell line screen, sulforhodamine B growth inhibition; assay type: cell-based, human; conditions: most cases, 48 h
[2] = system: histone acetylation biomarkers for KAT6, KAT7, KAT8, and KAT5; test: Histone acetylation biomarker panel by western blot, MCF-7; assay type: cell-based
Source text: Figure 5. Comparative cellular analysis of orthogonal MYST inhibitor chemotypes. (A) Chemical structures of commonly used MYST KAT inhibitors. Annotated target: KAT enzyme specified as target of each inhibitor in scientific or commercial vendor literature. Biomarker: KAT-regulated histone acetylation biomarker found to be modulated by each compound in this study. (B) Cellular response of histone acetylation biomarkers for KAT6, KAT7, KAT8, and KAT5 to treatment with drug-like MYST acetyltransferases inhibitors. MCF-7 cells were treated with escalating dosages (0.1, 1, 10, 30 μM.) of each compound for 24 h. […] Data is representative of n=2 biological replicates. […]
(§1) Target engagement was assessed using the panel of MYST-dependent histone acetylation biomarkers defined above. […] While WM-3835 has been applied to study KAT7, its initial publication alludes to its ability to inhibit both KAT6A/B and KAT7.[14], [43] […] All commercial vendors currently market WM-3835 as a KAT7 inhibitor.
(§2) General materials and methods
Total protein on western blots was
(§3) manufacturer's protocols.
KAT capture and competitive chemoproteomic profiling
(§4) for 2 hours, then lyophilized.

[3] = system: H3K14Ac (KAT7); test: Histone acetylation biomarker western blot, MCF-7; assay type: cell-based; conditions: MCF-7 cells, 24 h
[4] = system: KAT6A MYST domain; conditions: MYST domains, cited from earlier work
[5] = system: KAT7 MYST domain; conditions: MYST domains, cited from earlier work
[6] = system: KAT5 MYST domain; conditions: MYST domains, cited from earlier work
[7] = system: proteins captured by H3K14-CoA resin from HeLa nuclear extracts; test: Proteome-wide competitive chemoproteomic profiling (H3K14-CoA beads, TMT LC-MS/MS); assay type: binding; conditions: for Log2FC (100nM) / (000nM): 100 nM WM-3835, H3K14-CoA beads; for Log2FC (100nM) / (000nM) / Log2FC (1000nM) / (000nM) / Log2FC (10000nM) / (000nM): TMT; for Log2FC (1000nM) / (000nM): 1000 nM WM-3835, H3K14-CoA beads; for Log2FC (10000nM) / (000nM): 10000 nM WM-3835, H3K14-CoA beads
[8] = system: H3K23Ac (KAT6A/B); test: Histone acetylation biomarker western blot, MCF-7; assay type: cell-based; conditions: MCF-7 cells, 24 h
[9] = system: H4K16Ac (KAT8); test: Histone acetylation biomarker western blot, MCF-7; assay type: cell-based; conditions: MCF-7 cells, 24 h, up to 30 μM
Experimental: as §1, §2
Total protein on western blots was […]
as §3
KAT capture and competitive chemoproteomic profiling […]
as §4
12 μL triethylamine. […] The beads were then magnetically separated […]
distinguish between tightly grouped and diffuse clusters, compactness was quantified by calculating the average pairwise Euclidean distance between all points within each cluster. Clusters with lower average

[10] = molecular target: KAT6A MYST domain; conditions: SPR, MYST domains, cited from earlier work
[11] = molecular target: KAT7 MYST domain; conditions: SPR, MYST domains, as previously described (WM-8014); ref https://www.nature.com/articles/s41586-019-1835-6; cited from earlier work
[12] = molecular target: KAT5 MYST domain; conditions: SPR, MYST domains, as previously described (WM-8014); ref https://www.nature.com/articles/s41586-019-1835-6; cited from earlier work
[13] = system: KAT6B MYST domain; set-up: method as in https://www.nature.com/articles/s41586-018-0387-5; conditions: MYST domains, 0.4 uM AcCoA, H4 peptide; ref https://www.nature.com/articles/s41586-018-0387-5; cited from earlier work
[14] = system: KAT8 MYST domain; set-up: method as in https://www.nature.com/articles/s41586-018-0387-5; conditions: MYST domains, 0.4 uM AcCoA, H4 peptide; ref https://www.nature.com/articles/s41586-018-0387-5; cited from earlier work
[15] = protein MBTD1 (Q05BQ5, NuA4/Tip60)
[16] = protein MRGBP (Q9NV56, NuA4/Tip60)
[17] = protein TRRAP (Q9Y4A5, NuA4/Tip60)

C[C@H](CN[C@@H](C(=O)Nc1ccc(-c2cnn(C)c2)cn1)c1ccccc1)c1ccc(C#N)cc1 [CPI-1612]
growth inhibition potency compared with PF-9363 [1]: much more potent

O=C(NNS(=O)(=O)c1ccccc1F)c1cc(F)cc(-c2ccccn2)c1 [WM-1119]
effect on biomarkers other than KAT6A/B ([2]; MCF-7 cells, high concentrations): untouched
inhibition of KAT7 (H3K14Ac) at the highest concentration tested ([3]; 30 μM): little inhibition of KAT7
IC50 ([4]; 0.4 uM AcCoA, ref https://www.nature.com/articles/s41586-018-0387-5, read-out: KAT6A IC50 in μM (paper 1)): 0.0063 µM
IC50 ([4]; 1 μM acetyl-CoA, ref https://www.nature.com/articles/s41586-019-1835-6, read-out: KAT6A IC50 in μM (paper2)): 0.077 µM
IC50 ([5]; 1 μM acetyl-CoA, ref https://www.nature.com/articles/s41586-019-1835-6, read-out: KAT7 IC50 in μM (paper2)): 0.578 µM
IC50 ([6]; 1 μM acetyl-CoA, ref https://www.nature.com/articles/s41586-019-1835-6, read-out: KAT5 IC50 in μM (paper2)): 9.8 µM

Cc1cc(-c2ccccc2)cc(C(=O)NNS(=O)(=O)c2cccc(O)c2)c1F [WM-3835]
competition of JADE2 versus BRPF3 capture ([7]; 0, 0.1, 1, 10 μM): differential competition of JADE2 and BRPF3 capture
Log2FC (100nM) / (000nM) ([7]; protein KAT14 (Q9H8E8, STAGA)): 0.25
Log2FC (1000nM) / (000nM) ([7]; protein KAT14 (Q9H8E8, STAGA)): -0.01
Log2FC (10000nM) / (000nM) ([7]; protein KAT14 (Q9H8E8, STAGA)): -0.28
Log2FC (100nM) / (000nM) [7, 15]: 0.4
Log2FC (1000nM) / (000nM) [7, 15]: 0.54
Log2FC (10000nM) / (000nM) [7, 15]: 0.24
Log2FC (100nM) / (000nM) [7, 16]: 0.37
Log2FC (1000nM) / (000nM) [7, 16]: 0.49
Log2FC (10000nM) / (000nM) [7, 16]: 0.27
Log2FC (100nM) / (000nM) [7, 17]: -0.03
Log2FC (1000nM) / (000nM) [7, 17]: 0.04
Log2FC (10000nM) / (000nM) [7, 17]: -0.06
more potent inhibition of KAT6A/B (H3K23Ac) than KAT7 (H3K14Ac) ([2]; MCF-7 model, 24 h): ~ 100 fold
inhibition of KAT6A/B-catalyzed H3K23Ac [8]: potently inhibits
inhibition of KAT8 (H4K16Ac) [9]: not KAT8
IC50 ([4]; 1 μM acetyl-CoA, WM-3835 sheet, ref https://www.nature.com/articles/s41586-019-1835-6, read-out: KAT6A IC50): 0.017 µM
IC50 ([5]; 1 μM acetyl-CoA, WM-3835 sheet, ref https://www.nature.com/articles/s41586-019-1835-6, read-out: KAT7 IC50): 0.03 µM
IC50 ([6]; 1 μM acetyl-CoA, WM-3835 sheet, ref https://www.nature.com/articles/s41586-019-1835-6, read-out: KAT5 IC50): 0.312 µM
Kd ([10]; as previously described (WM-8014), ref https://www.nature.com/articles/s41586-019-1835-6): 7 nM
Kd [11]: 34 nM
Kd [12]: 500 nM

Cc1cc(-c2ccccc2)cc(C(=O)NNS(=O)(=O)c2ccccc2)c1F [WM-8014]
doses at which KAT7 (H3K14Ac) is inhibited [3]: 10 to 30 µM
inhibition of KAT8 (H4K16Ac) [9]: not KAT8
IC50 ([4]; 0.4 uM AcCoA, H4 peptide, ref https://www.nature.com/articles/s41586-018-0387-5, read-out: KAT6A IC50): 0.0082 µM
IC50 [13]: 28 nM
IC50 ([5]; 1 uM AcCoA, H4 FL, ref https://www.nature.com/articles/s41586-018-0387-5, read-out: KAT7 IC50): 0.342 µM
IC50 [14]: 11000 nM
IC50 ([6]; 5 uM AcCoA, H4 peptide, ref https://www.nature.com/articles/s41586-018-0387-5, read-out: KAT5 IC50): 0.224 µM
Kd ([10]; ref https://www.nature.com/articles/s41586-018-0387-5): 5.1 nM
